Results: ChEMBL document CHEMBL1201862, “PubChem BioAssay data set” (2004)
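Growth conditions: 96-well plates. Treatment: test compound, 48 hours, 5 concentrations. Analysis: linear interpolation between bracketing concentrations; unreached endpoints set to highest concentration. Abbreviation: GI50, concentration required for 50% inhibition of growth.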 Calls of active or inactive are those of the source. Cut-off read from the data, not from the text of the source: active = GI50 up to about 1.1 µM and inactive = higher.

Columns and labels:
Assay in all cases: NCI-60 cell line screen, 48 h
[1] = test system: UACC-62
[2] = test system: K562
[3] = test system: OVCAR-8
[4] = test system: HCT-15
[5] = test system: SF-539
[6] = test system: MOLT-4
[7] = test system: A549
[8] = test system: A498
[9] = test system: EKVX
[10] = test system: IGROV-1
[11] = test system: SF-268
[12] = test system: SR
[13] = test system: NCI-H23
[14] = test system: BT-549
[15] = test system: SNB-75
[16] = test system: SW-620
[17] = test system: NCI-H460
[18] = test system: MDA-MB-231
[19] = test system: SF-295
[20] = test system: OVCAR-3

Compound	GI50 [1]	GI50 [2]	GI50 [3]	GI50 [4] [µM]	GI50 [5]	GI50 [6]	GI50 [7]	GI50 [8]	GI50 [9]	GI50 [10]	GI50 [11]	GI50 [12]	GI50 [13]	GI50 [14]	GI50 [15]	GI50 [16]	GI50 [17]	GI50 [18]	GI50 [19]	GI50 [20]
CCN1CCC(O)(c2ccc(Oc3ccc(Cl)cc3)cc2)C(C(=O)c2ccc(Oc3ccc(Cl)cc3)cc2)C1 (stereo not given)	12.2 µM (inactive)	5.28 µM (inactive)	17.1 µM (inactive)	7.35	15.3 µM (inactive)	8.45 µM (inactive)	6.97 µM (inactive)	8.61 µM (inactive)	16.8 µM (inactive)	8.38 µM (inactive)	17.8 µM (inactive)	3.48 µM (inactive)	11.7 µM (inactive)	14.5 µM (inactive)	12.9 µM (inactive)	12.8 µM (inactive)	3.76 µM (inactive)	14.7 µM (inactive)	12.4 µM (inactive)	–
Cc1cc(Cl)ccc1OCC(=O)Oc1c(Cl)c(Cl)c(Cl)c(Cl)c1Cl	19 µM (inactive)	35.2 µM (inactive)	26 µM (inactive)	27	38.7 µM (inactive)	–	25.6 µM (inactive)	25.6 µM (inactive)	18.6 µM (inactive)	17.4 µM (inactive)	30.5 µM (inactive)	17.7 µM (inactive)	26.4 µM (inactive)	35.9 µM (inactive)	26.6 µM (inactive)	32.3 µM (inactive)	22.6 µM (inactive)	18 µM (inactive)	24.1 µM (inactive)	18.2 µM (inactive)
COc1ccc(NC(C)=O)c(C(O)CCNC(C)=O)c1 (stereo not given)	> 100 µM (inactive)	–	> 100 µM (inactive)	> 100	> 100 µM (inactive)	> 100 µM (inactive)	> 100 µM (inactive)	31.5 µM (inactive)	> 100 µM (inactive)	> 100 µM (inactive)	> 100 µM (inactive)	> 100 µM (inactive)	> 100 µM (inactive)	> 100 µM (inactive)	> 100 µM (inactive)	> 100 µM (inactive)	> 100 µM (inactive)	> 100 µM (inactive)	> 100 µM (inactive)	> 100 µM (inactive)
Cc1cccc(/N=N/c2c(C)nn(C(=O)CC(=O)Nc3ccccc3)c2C)c1	> 100 µM (inactive)	–	> 100 µM (inactive)	> 100	> 100 µM (inactive)	> 100 µM (inactive)	> 100 µM (inactive)	> 100 µM (inactive)	> 100 µM (inactive)	> 100 µM (inactive)	> 100 µM (inactive)	> 100 µM (inactive)	> 100 µM (inactive)	> 100 µM (inactive)	> 100 µM (inactive)	> 100 µM (inactive)	> 100 µM (inactive)	> 100 µM (inactive)	> 100 µM (inactive)	> 100 µM (inactive)
O=C(CCCCCCCCC(=O)N1C(=O)CC(=O)N(c2ccccc2)C1=S)N1C(=O)CC(=O)N(c2ccccc2)C1=S	> 100 µM (inactive)	–	> 100 µM (inactive)	> 100	–	> 100 µM (inactive)	> 100 µM (inactive)	> 100 µM (inactive)	> 100 µM (inactive)	–	> 100 µM (inactive)	> 100 µM (inactive)	> 100 µM (inactive)	> 100 µM (inactive)	> 100 µM (inactive)	–	> 100 µM (inactive)	> 100 µM (inactive)	> 100 µM (inactive)	> 100 µM (inactive)
O=C1c2ccccc2C(=O)N1c1ccc(OCCN2CCCCC2)cc1	> 100 µM (inactive)	> 100 µM (inactive)	> 100 µM (inactive)	> 100	> 100 µM (inactive)	> 100 µM (inactive)	> 100 µM (inactive)	> 100 µM (inactive)	> 100 µM (inactive)	> 100 µM (inactive)	> 100 µM (inactive)	> 100 µM (inactive)	> 100 µM (inactive)	> 100 µM (inactive)	–	> 100 µM (inactive)	> 100 µM (inactive)	> 100 µM (inactive)	> 100 µM (inactive)	> 100 µM (inactive)
O=C(C[N+]12CN3CN(CN(C3)C1)C2)c1ccc(-c2ccccc2)cc1	16.1 µM (inactive)	15 µM (inactive)	32 µM (inactive)	30.1	–	16.7 µM (inactive)	30.1 µM (inactive)	19.6 µM (inactive)	19.8 µM (inactive)	24.3 µM (inactive)	19.4 µM (inactive)	3.2 µM (inactive)	23.3 µM (inactive)	29.9 µM (inactive)	19.7 µM (inactive)	8.67 µM (inactive)	13.7 µM (inactive)	16.2 µM (inactive)	19.8 µM (inactive)	29.3 µM (inactive)
Nc1ccccc1C(=O)CCc1c[nH]c2ccccc12	25.1 µM (inactive)	> 100 µM (inactive)	> 100 µM (inactive)	93.3	30.3 µM (inactive)	> 100 µM (inactive)	> 100 µM (inactive)	> 100 µM (inactive)	48.3 µM (inactive)	35.7 µM (inactive)	43.4 µM (inactive)	> 100 µM (inactive)	–	19.3 µM (inactive)	29.4 µM (inactive)	> 100 µM (inactive)	> 100 µM (inactive)	> 100 µM (inactive)	19.4 µM (inactive)	> 100 µM (inactive)
O=C(Nc1sccc1S(=O)(=O)c1ccc(Cl)cc1)c1ccc(F)cc1F	25.8 µM (inactive)	18 µM (inactive)	30.9 µM (inactive)	66.4	14.3 µM (inactive)	20.4 µM (inactive)	48.2 µM (inactive)	24.2 µM (inactive)	19.6 µM (inactive)	30.6 µM (inactive)	19.7 µM (inactive)	18.2 µM (inactive)	21 µM (inactive)	20.8 µM (inactive)	19.3 µM (inactive)	73.1 µM (inactive)	–	20.7 µM (inactive)	23.3 µM (inactive)	37.4 µM (inactive)
C=CCn1c(S)nnc1C12CC3CC(CC(C3)C1)C2	90.8 µM (inactive)	25.4 µM (inactive)	92.9 µM (inactive)	44.3	> 100 µM (inactive)	20.9 µM (inactive)	–	> 100 µM (inactive)	–	> 100 µM (inactive)	> 100 µM (inactive)	1.51 µM (inactive)	94.4 µM (inactive)	50.6 µM (inactive)	> 100 µM (inactive)	> 100 µM (inactive)	53.5 µM (inactive)	> 100 µM (inactive)	41.3 µM (inactive)	59.4 µM (inactive)
CCCCn1c(C)c(C(=O)OCC)s/c1=N/Nc1nc2ccccc2nc1-c1ccccc1	> 100 µM (inactive)	> 100 µM (inactive)	56.2 µM (inactive)	> 100	> 100 µM (inactive)	> 100 µM (inactive)	50.4 µM (inactive)	58.5 µM (inactive)	> 100 µM (inactive)	75.7 µM (inactive)	–	> 100 µM (inactive)	92.9 µM (inactive)	> 100 µM (inactive)	> 100 µM (inactive)	> 100 µM (inactive)	> 100 µM (inactive)	39.3 µM (inactive)	43.3 µM (inactive)	72.1 µM (inactive)
Cc1cc(Cl)cc2c1NC(=O)/C2=N\Nc1ccccc1[N+](=O)[O-]	> 100 µM (inactive)	> 100 µM (inactive)	–	> 100	> 100 µM (inactive)	74.3 µM (inactive)	> 100 µM (inactive)	> 100 µM (inactive)	> 100 µM (inactive)	19.1 µM (inactive)	> 100 µM (inactive)	16.7 µM (inactive)	40.5 µM (inactive)	> 100 µM (inactive)	> 100 µM (inactive)	> 100 µM (inactive)	> 100 µM (inactive)	66.8 µM (inactive)	64.7 µM (inactive)	> 100 µM (inactive)
CC1OC(OC2C(O[C@H]3CC[C@@]4(C)C(=CC[C@H]5[C@@H]6C[C@@H]7O[C@]8(CC[C@@H](C)CO8)[C@@H](C)[C@@H]7[C@@]6(C)CC[C@@H]54)C3)OC(CO)C(O)C2OC2OC(CO)C(O)C(O)C2O)C(O)C(O)C1O (stereo not given in full)	2.33 µM (inactive)	14.4 µM (inactive)	3.19 µM (inactive)	1.95	2.15 µM (inactive)	–	1.81 µM (inactive)	1.44 µM (inactive)	12.4 µM (inactive)	1.76 µM (inactive)	1.9 µM (inactive)	> 100 µM (inactive)	1.89 µM (inactive)	2.07 µM (inactive)	2.04 µM (inactive)	0.205 µM (active)	2.22 µM (inactive)	1.47 µM (inactive)	2.14 µM (inactive)	1.08 µM (active)
Cc1ccc(Nc2nc(=O)[nH]c(=O)[nH]2)cc1N	> 100 µM (inactive)	–	> 100 µM (inactive)	> 100	> 100 µM (inactive)	–	> 100 µM (inactive)	> 100 µM (inactive)	> 100 µM (inactive)	> 100 µM (inactive)	> 100 µM (inactive)	> 100 µM (inactive)	> 100 µM (inactive)	> 100 µM (inactive)	> 100 µM (inactive)	30.8 µM (inactive)	> 100 µM (inactive)	> 100 µM (inactive)	> 100 µM (inactive)	> 100 µM (inactive)
N/N=C1\C(OC(=O)Nc2ccccc2)=Nc2ccccc21	14.8 µM (inactive)	40.3 µM (inactive)	12.1 µM (inactive)	26.5	15.6 µM (inactive)	–	17 µM (inactive)	17.1 µM (inactive)	18.2 µM (inactive)	14.8 µM (inactive)	36.1 µM (inactive)	25.6 µM (inactive)	15.1 µM (inactive)	11.7 µM (inactive)	22.8 µM (inactive)	31.9 µM (inactive)	10.9 µM (inactive)	18.6 µM (inactive)	14 µM (inactive)	11.2 µM (inactive)
